Source: ChEMBL document CHEMBL5137026, “Novel deuterated Mnk1/2 protein degrader VNLG-152R analogs: Synthesis, In vitro Anti-TNBC activities and pharmacokinetics in mice” (Eur J Med Chem, 2022)

What was measured:
MDA-MB-231 [1] = test: Antiproliferative activity against human MDA-MB-231 cells measured after 6 days by MTT assay; format: functional; conditions: MDA-MB-231, 144 h, time 6 day
MDA-MB-468 [2] = test: Antiproliferative activity against human MDA-MB-468 cells measured after 6 days by MTT assay; format: functional; conditions: MDA-MB-468, 144 h, time 6 day
[3] = Cmax in po dosed CD-1 mouse by LC/MS/MS analysis; format: ADME, organism-based; design: route po; conditions: in vivo
[4] = Tmax in po dosed CD-1 mouse by LC/MS/MS analysis; format: ADME, organism-based; conditions: in vivo
[5] = Half life in po dosed CD-1 mouse by LC/MS/MS analysis; format: ADME, organism-based; conditions: in vivo
[6] = AUC in po dosed CD-1 mouse by LC/MS/MS analysis; format: ADME, organism-based; design: route po; conditions: in vivo
[7] = MRT in po dosed CD-1 mouse by LC/MS/MS analysis; format: ADME, organism-based; conditions: in vivo
MDA-MB-231 [8] = test: Induction of apoptosis in human MDA-MB-231 cells assessed as downregulation of […] measured after 24 hrs by SDS PAGE based Western blotting analysis; format: functional, cell-based
MDA-MB-468 [9] = test: Induction of apoptosis in human MDA-MB-468 cells assessed as downregulation of […] measured after 24 hrs by SDS PAGE based Western blotting analysis; format: functional, cell-based
MDA-MB-231 [10] = test: Induction of apoptosis in human MDA-MB-231 cells assessed as downregulation of Bcl-2 measured after 24 hrs by SDS PAGE based Western blotting analysis; format: functional, cell-based
MDA-MB-468 [11] = test: Induction of apoptosis in human MDA-MB-468 cells assessed as downregulation of Bcl-2 measured after 24 hrs by SDS PAGE based Western blotting analysis; format: functional, cell-based
MDA-MB-231 [12] = test: Induction of apoptosis in human MDA-MB-231 cells assessed as upregulation of Bax measured after 24 hrs by SDS PAGE based Western blotting analysis; format: functional, cell-based
MDA-MB-468 [13] = test: Induction of apoptosis in human MDA-MB-468 cells assessed as upregulation of Bax measured after 24 hrs by SDS PAGE based Western blotting analysis; format: functional, cell-based
MDA-MB-231 [14] = test: Downregulation of Mnk1 in human MDA-MB-231 cells measured after 24 hrs by SDS PAGE based Western blotting analysis; format: functional, cell-based
MDA-MB-231 [15] = test: Downregulation of PeIF4E in human MDA-MB-231 cells measured after 24 hrs by SDS PAGE based Western blotting analysis; format: functional, cell-based
MDA-MB-231 [16] = test: Antiproliferative activity against human MDA-MB-231 cells measured after 24 hrs by MTT assay; format: functional
[17] = dose 5-20 µM, DDE = dose-dependent effect, tested as the 2H-labelled form
[18] = dose 5-20 µM, tested as the 2H-labelled form, DDE = dose-dependent effect
[19] = dose 5-20 µM, DDE = dose-dependent effect

SMILES: [2H]c1nc([2H])n(C2([2H])CCC(C)(C)C(/C=C/C(C)=C/C=C/C(C)=C/C(=O)Nc3c([2H])c([2H])c(F)c([2H])c3[2H])=C2C)c1[2H] (racemic)
- GI50 (MDA-MB-231 [1]): 710 nM
- GI50 (MDA-MB-468 [2]): 290 nM
- Cmax [3]: 1620 ng/mL
- Tmax [4]: 2.67 h
- half-life [5]: 10.3 h
- AUC [6]: 22600 ng·h/mL
- MRT [7]: 8.92 h

SMILES: CC1=C(/C=C/C(C)=C/C=C/C(C)=C/C(=O)Nc2ccc(F)cc2)C(C)(C)CCC1n1ccnc1 (racemic; form 4)
- Activity (MDA-MB-231 [8]; [17]): Dde
- Activity (MDA-MB-468 [9]; [18]): Dde
- Activity (MDA-MB-231 [10]; [17]): Dde
- Activity (MDA-MB-468 [11]; [18]): Dde
- Activity (MDA-MB-231 [12]; [18]): Dde
- Activity (MDA-MB-468 [13]; [17]): Dde
- Activity (MDA-MB-231 [14]; [17]): Dde
- Activity (MDA-MB-231 [15]; [17]): Dde

SMILES: [2H]c1nc([2H])n(C2CCC(C)(C)C(/C=C/C(C)=C/C=C/C(C)=C/C(=O)Nc3c([2H])c([2H])c(F)c([2H])c3[2H])=C2C)c1[2H] (racemic)
- GI50 (MDA-MB-231 [1]): 620 nM
- GI50 (MDA-MB-468 [2]): 250 nM
- Cmax [3]: 455 ng/mL
- Tmax [4]: 0.83 h
- half-life [5]: 4.34 h
- AUC [6]: 2060 ng·h/mL
- MRT [7]: 2.89 h

SMILES: [2H]C1(n2ccnc2)CCC(C)(C)C(/C=C/C(C)=C/C=C/C(C)=C/C(=O)Nc2ccc(F)cc2)=C1C (racemic)
- GI50 (MDA-MB-231 [1]): 860 nM
- GI50 (MDA-MB-468 [2]): 190 nM
- Cmax [3]: 1030 ng/mL
- Tmax [4]: 2.5 h
- half-life [5]: 12.1 h
- AUC [6]: 17600 ng·h/mL
- MRT [7]: 9.06 h

SMILES: [2H]c1c([2H])c(NC(=O)/C=C(C)/C=C/C=C(C)/C=C/C2=C(C)C(n3ccnc3)CCC2(C)C)c([2H])c([2H])c1F (racemic)
- GI50 (MDA-MB-231 [1]): 770 nM
- GI50 (MDA-MB-468 [2]): 270 nM
- Cmax [3]: 273 ng/mL
- Tmax [4]: 0.83 h
- half-life [5]: 4.9 h
- AUC [6]: 1730 ng·h/mL
- MRT [7]: 4.63 h

SMILES: CC1=C(/C=C/C(C)=C/C=C/C(C)=C/C(=O)Nc2ccc(F)cc2)C(C)(C)CCC1n1ccnc1 (racemic; form 8)
- Activity (MDA-MB-231 [8]; [17]): Dde
- Activity (MDA-MB-468 [9]; [17]): Dde
- Activity (MDA-MB-231 [10]; [17]): Dde
- Activity (MDA-MB-468 [11]; [18]): Dde
- Activity (MDA-MB-231 [12]; [18]): Dde
- Activity (MDA-MB-468 [13]; [17]): Dde
- Activity (MDA-MB-231 [14]; [17]): Dde
- Activity (MDA-MB-231 [15]; [18]): Dde

SMILES: [2H]c1nc([2H])n(C2([2H])CCC(C)(C)C(/C=C/C(C)=C/C=C/C(C)=C/C(=O)Nc3ccc(F)cc3)=C2C)c1[2H] (racemic)
- GI50 (MDA-MB-231 [1]): 830 nM
- GI50 (MDA-MB-468 [2]): 270 nM
- Cmax [3]: 501 ng/mL
- Tmax [4]: 0.67 h
- half-life [5]: 4.27 h
- AUC [6]: 2700 ng·h/mL
- MRT [7]: 5.49 h

SMILES: CC1=C(/C=C/C(C)=C/C=C/C(C)=C/C(=O)Nc2ccc(F)cc2)C(C)(C)CCC1n1ccnc1 (racemic; form 7)
- Activity (MDA-MB-231 [8]; [18]): Dde
- Activity (MDA-MB-468 [9]; [17]): Dde
- Activity (MDA-MB-231 [10]; [17]): Dde
- Activity (MDA-MB-468 [11]; [17]): Dde
- Activity (MDA-MB-231 [12]; [18]): Dde
- Activity (MDA-MB-468 [13]; [17]): Dde
- Activity (MDA-MB-231 [14]; [18]): Dde
- Activity (MDA-MB-231 [15]; [18]): Dde

SMILES: CC1=C(/C=C/C(C)=C/C=C/C(C)=C/C(=O)Nc2ccc(F)cc2)C(C)(C)CCC1n1ccnc1 (racemic; form 6)
- Activity (MDA-MB-231 [8]; [18]): Dde
- Activity (MDA-MB-468 [9]; [17]): Dde
- Activity (MDA-MB-231 [10]; [18]): Dde
- Activity (MDA-MB-468 [11]; [18]): Dde
- Activity (MDA-MB-231 [12]; [17]): Dde
- Activity (MDA-MB-468 [13]; [18]): Dde
- Activity (MDA-MB-231 [14]; [18]): Dde
- Activity (MDA-MB-231 [15]; [18]): Dde

SMILES: CC1=C(/C=C/C(C)=C/C=C/C(C)=C/C(=O)Nc2ccc(F)cc2)C(C)(C)CCC1n1ccnc1 (racemic; form 1) [listing 1 of 2 here]
- GI50 (MDA-MB-231 [1]): 830 nM
- GI50 (MDA-MB-468 [2]): 400 nM
- Cmax [3]: 4650 ng/mL
- Tmax [4]: 0.83 h
- half-life [5]: 3.61 h
- AUC [6]: 22800 ng·h/mL
- MRT [7]: 3.02 h

SMILES: CC1=C(/C=C/C(C)=C/C=C/C(C)=C/C(=O)Nc2ccc(F)cc2)C(C)(C)CCC1n1ccnc1 (racemic; form 2)
- Activity (MDA-MB-231 [8]; [18]): Dde
- Activity (MDA-MB-468 [9]; [17]): Dde
- Activity (MDA-MB-231 [10]; [17]): Dde
- Activity (MDA-MB-468 [11]; [18]): Dde
- Activity (MDA-MB-231 [12]; [18]): Dde
- Activity (MDA-MB-468 [13]; [18]): Dde
- Activity (MDA-MB-231 [14]; [18]): Dde
- Activity (MDA-MB-231 [15]; [18]): Dde

SMILES: [2H]c1c([2H])c(NC(=O)/C=C(C)/C=C/C=C(C)/C=C/C2=C(C)C([2H])(n3ccnc3)CCC2(C)C)c([2H])c([2H])c1F (racemic)
- GI50 (MDA-MB-231 [1]): 620 nM
- GI50 (MDA-MB-468 [2]): 270 nM
- Cmax [3]: 1360 ng/mL
- Tmax [4]: 0.75 h
- half-life [5]: 10.2 h
- AUC [6]: 15500 ng·h/mL
- MRT [7]: 8.48 h

SMILES: CC1=C(/C=C/C(C)=C/C=C/C(C)=C/C(=O)Nc2ccc(F)cc2)C(C)(C)CCC1n1ccnc1 (racemic; form 3)
- Activity (MDA-MB-231 [8]; [17]): Dde
- Activity (MDA-MB-468 [9]; [18]): Dde
- Activity (MDA-MB-231 [10]; [17]): Dde
- Activity (MDA-MB-468 [11]; [18]): Dde
- Activity (MDA-MB-231 [12]; [17]): Dde
- Activity (MDA-MB-468 [13]; [18]): Dde
- Activity (MDA-MB-231 [14]; [17]): Dde
- Activity (MDA-MB-231 [15]; [17]): Dde

SMILES: [2H]c1nc([2H])n(C2CCC(C)(C)C(/C=C/C(C)=C/C=C/C(C)=C/C(=O)Nc3ccc(F)cc3)=C2C)c1[2H] (racemic)
- GI50 (MDA-MB-231 [1]): 710 nM
- GI50 (MDA-MB-468 [2]): 280 nM
- Cmax [3]: 151 ng/mL
- Tmax [4]: 1.33 h
- half-life [5]: 8.39 h
- AUC [6]: 1740 ng·h/mL
- MRT [7]: 3.57 h

SMILES: CC1=C(/C=C/C(C)=C/C=C/C(C)=C/C(=O)Nc2ccc(F)cc2)C(C)(C)CCC1n1ccnc1 (racemic; form 1) [listing 2 of 2 here]
- Activity (MDA-MB-231 [8]; [19]): Dde
- Activity (MDA-MB-468 [9]; [19]): Dde
- Activity (MDA-MB-231 [10]; [19]): Dde
- Activity (MDA-MB-468 [11]; [19]): Dde
- Activity (MDA-MB-231 [12]; [19]): Dde
- Activity (MDA-MB-468 [13]; [19]): Dde
- Activity (MDA-MB-231 [14]; [19]): Dde
- Activity (MDA-MB-231 [15]; [19]): Dde

SMILES: CC(=O)O[C@H]1C(=O)[C@@]2(C)[C@H]([C@H](OC(=O)c3ccccc3)[C@]3(O)C[C@H](OC(=O)[C@H](O)[C@@H](NC(=O)c4ccccc4)c4ccccc4)C(C)=C1C3(C)C)[C@]1(OC(C)=O)CO[C@@H]1C[C@@H]2O [PACLITAXEL]
- GI50 (MDA-MB-231 [1]): 220 nM
- GI50 (MDA-MB-468 [2]): 100 nM
- GI50 (MDA-MB-231 [16]): 300 nM

SMILES: CC1=C(/C=C/C(C)=C/C=C/C(C)=C/C(=O)Nc2ccc(F)cc2)C(C)(C)CCC1n1ccnc1 (racemic; form 5)
- Activity (MDA-MB-231 [8]; [18]): Dde
- Activity (MDA-MB-468 [9]; [18]): Dde
- Activity (MDA-MB-231 [10]; [18]): Dde
- Activity (MDA-MB-468 [11]; [17]): Dde
- Activity (MDA-MB-231 [12]; [18]): Dde
- Activity (MDA-MB-468 [13]; [17]): Dde
- Activity (MDA-MB-231 [14]; [18]): Dde
- Activity (MDA-MB-231 [15]; [18]): Dde
